In US9867798B2, “Ladostigil therapy for immunomodulation” (priority 2012, dated 2018):

How the values were obtained:
[1] = test system: ChE; assay: Cholinesterase activity in spleen and plasma of mice (Example 4); assay type: in vivo, Balb-C mice; details: 10 mg/kg oral, two hours, ± SD, not significant
Description: Ladostigil 10 mg/kg or saline 1 mg/kg were given by gavage to groups of 6 Balb-C male mice weighing 24-30 gm. The mice were sacrificed 120 min later when ChE inhibition reaches its peak. The spleen was rapidly removed and weighed and blood was centrifuged at 14000 rpm at room temperature for 4 min to provide plasma. Phosphate buffer was added to the spleen at a ratio of 1 mg/ml and the tissue was homogenized at a speed of 24,000 rpm in cold phosphate buffer pH=7 containing 0.1% Triton and centrifuged at 14000 rpm. Aliquots of plasma and the supernatant from the spleen were incubated with acetylthiocholine and dinitro benzoic acid in phosphate buffer pH 7 and the rate of development of the yellow color was measured as described by Ellman et al, (1961). Percent inhibition of ChE activity was calculated by comparison with that of control mice given with saline. Protein concentration was determined by means of Bradford reagent (Bio-RAD, 500-0006) and results represented as activity/mg protein.

[2] = biological target: T1, MAO-A (Rattus norvegicus, UniProt P21396); assay: MAO-A activity in heart of treated rats; assay type: in vivo; details: read-out: MAO-A activity in the heart inhibited
T1 construct: from tissue; host or cells: heart of aged Wistar rats after chronic oral dosing
T1 sequence (P21396 1-526): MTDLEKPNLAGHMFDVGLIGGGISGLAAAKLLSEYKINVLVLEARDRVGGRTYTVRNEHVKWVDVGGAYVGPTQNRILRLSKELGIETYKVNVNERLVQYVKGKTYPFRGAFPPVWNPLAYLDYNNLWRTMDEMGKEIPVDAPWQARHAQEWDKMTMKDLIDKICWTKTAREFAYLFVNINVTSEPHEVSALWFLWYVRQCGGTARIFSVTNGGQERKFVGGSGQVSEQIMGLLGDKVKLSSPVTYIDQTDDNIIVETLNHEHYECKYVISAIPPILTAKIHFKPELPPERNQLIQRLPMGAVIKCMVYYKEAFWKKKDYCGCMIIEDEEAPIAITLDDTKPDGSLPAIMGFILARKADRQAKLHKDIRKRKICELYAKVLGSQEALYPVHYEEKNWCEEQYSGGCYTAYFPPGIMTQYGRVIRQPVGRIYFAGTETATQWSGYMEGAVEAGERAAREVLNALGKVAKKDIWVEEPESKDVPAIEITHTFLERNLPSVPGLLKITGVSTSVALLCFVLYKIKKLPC

[3] = test system: rat heart ischemia/reperfusion; assay: Myocardial ischemic preconditioning, isolated Langendorff hearts of chronically treated rats; assay type: in vivo, Wistar rats; parameters: DP: unit not given beside the values; details: for DP / HR / WI: old rats; for WI: percent of value at end of stabilization
Description: Four groups of male rats of the Wistar strain were used for these studies; a) 3-months old untreated; b) 22 months old, untreated; c) 22 months old treated from the age of 16 months by daily oral administration of ladostigil hemitartrate at a dose of 1 mg/kg/day (hereinafter “low dose”; d) 22 months old treated from the age of 16 months by daily oral administration of ladostigil hemitartrate at a dose of 8.5 mg/kg/day (hereinafter “high dose”).
On the day of the experiment, rats were injected with i.p. sodium heparin (500 units/kg) followed 30 min later by 80 mg/kg ketamine plus 5 mg/kg xylazine i.p. Bilateral thoracotomy was performed and hearts with a segment of the ascending aorta were rapidly excised, put in ice-cold heparinized saline and mounted onto the Langendorff apparatus. They were perfused with a modified Krebs-Henseleit (KH) buffer as described in Chevion et al. (1993). Heart rate (HR), developed pressure (DP), and its derivatives (+dp/dt and −dp/dt) were recorded. All primary data were processed using a customized version of LabView 7.1 software (National Instruments, Austin, Tex., USA). Work index (WI=Heart Rate×DP) was used as an indicator of heart contractility. The degree of cardio-protection was expressed by the percent (ratio) of two values: WI at the completion of the experiment (at the 120th min) and WI at the completion of the stabilization phase (at the 10th min).
Experimental protocol: Three basic experimental protocols were employed: (i) continuous (un-interrupted) perfusion: (ii) stabilization (25 min) followed by ischemia and reperfusion (35/60 min) (I/R), and (iii) stabilization (10 min) followed by IPC, ischemia and reperfusion (IPC+I/R). The hemodynamic parameters of the heart were monitored and recorded continuously throughout, during all experimental protocols. Under the I/R protocol, the stabilization phase was extended from 10 to 25 min to compensate for the 15 min of the IPC procedure, which consisted of 3 cycles of (2 min ischemia and 3 min perfusion).

[4] = test system: IL-1β and MPO in colon; assay: Cytokines and myeloperoxidase in colon of DSS-treated mice; assay type: in vivo; details: 8th day of DSS ingestion, 5 vs 10 mg/kg
Description: TNF-α, IL-6, and IL-1β levels in homogenized colon were measured by means of a BioLegend ELISA Mouse kit. One cm of colon was homogenized in ice-cold PBS buffer containing protease inhibitor cocktail (Sigma, St. Louis, Mo., USA; dilution 1:100) using a Polytron homogenizer, and then centrifuged for 15 min at 14,000 rpm at 4° C. Supernatants were diluted 1:5 in diluent buffer supplied in the kit and applied to 96-well MaxiSorb Elisa plates according to manufacturer's protocol. Total protein concentration in the tissue supernatant was measured by means of a BCA kit. Levels of cytokines are expressed as pg/mg total tissue protein.
Neutrophil infiltration was monitored by measuring myeloperoxidase (MPO) activity in colon segments according to the protocol described by Bradley (1982) in 96-well micro-titer plates by mixing 10 μl of the supernatant with 290 μl of o-dianisidine dihydrochloride solution. Data were interpolated from a MPO standard curve. MPO activity was expressed as units per μg total protein measured in the sample by Pierce BCA Protein Assay Kit as described above.

[5] = test system: ChE; assay: ChE inhibition in heart or brain of treated rats; assay type: in vivo
[6] = biological target: BuChE (Homo sapiens, UniProt P06276); assay: Relative potency in inhibiting BuChE and AChE
[7] = test system: AChE; details: 51 and 70.1 mg/kg/day, doses effective in ameliorating EAE; cited from earlier work
[8] = IPC + I/R, high dose 8.5 mg/kg/day
[9] = IPC + I/R, low dose 1 mg/kg/day

Chain of BuChE (P06276 29-602): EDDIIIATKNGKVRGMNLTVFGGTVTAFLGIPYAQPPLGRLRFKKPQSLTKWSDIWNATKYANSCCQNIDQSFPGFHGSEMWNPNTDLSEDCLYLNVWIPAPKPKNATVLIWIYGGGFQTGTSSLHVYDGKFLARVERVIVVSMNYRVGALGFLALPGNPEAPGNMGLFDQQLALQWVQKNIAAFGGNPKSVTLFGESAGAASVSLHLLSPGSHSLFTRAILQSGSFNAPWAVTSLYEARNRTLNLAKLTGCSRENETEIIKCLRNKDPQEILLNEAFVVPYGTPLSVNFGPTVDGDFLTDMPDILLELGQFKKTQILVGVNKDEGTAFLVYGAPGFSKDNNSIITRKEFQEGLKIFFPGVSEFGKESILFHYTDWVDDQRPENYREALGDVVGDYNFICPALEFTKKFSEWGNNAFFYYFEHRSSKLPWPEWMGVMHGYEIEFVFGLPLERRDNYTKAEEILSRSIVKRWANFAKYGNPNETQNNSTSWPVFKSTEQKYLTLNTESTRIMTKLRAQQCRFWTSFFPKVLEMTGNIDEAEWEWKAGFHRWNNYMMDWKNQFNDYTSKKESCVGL

## C#CCN[C@@H]1CCc2ccc(OC(=O)N(C)CC)cc21 [Ladostigil, R(+)-6-(N-methyl, N-ethyl-carbamoyloxy)-N′-propargyl-1-aminoindan]
[1]
  Inhibition of ChE in plasma: 5.7±2.1%
  Inhibition of ChE in spleen: 7.8±6.4%
[2]
  inhibition at 8.5 mg/kg/day: 50 to 60%
[3]; aging rats, I/R without IPC, either dose
  Effect on WI after ischemia and 60 min reperfusion: no significant effect
[3]; I/R, high dose 8.5 mg/kg/day
  DP: 14 ± 6
  HR: 83 ± 8
  WI: 12 ± 5%
[3]; I/R, low dose 1 mg/kg/day
  DP: 20 ± 10
  HR: 67 ± 15
  WI: 13 ± 6%
[3]; [8]
  DP: 30 ± 12
  HR: 92 ± 28
[3]; IPC + I/R, high dose 8.5 mg/kg/day, 8.5 mg/kg/day
  WI: 26 ± 6%
[3]; IPC + I/R, high dose 8.5 mg/kg/day, listed as ladostigil, 8.5 mg/kg/day
  WI: much smaller
[3]; [9]
  DP: 68 ± 15
  HR: 77 ± 8
[3]; IPC + I/R, low dose 1 mg/kg/day, 1 mg/kg/day
  WI: 53 ± 12%
[3]; IPC + I/R, low dose 1 mg/kg/day, listed as ladostigil, 1 mg/kg/day
  WI: > 50%
[4]
  Reduction of IL-1β levels and MPO activity in colon: 5 mg/kg was more effective than 10 mg/kg
[5]; 1 mg/kg/day
  ChE inhibition in the heart or brain: No significant ChE inhibition
[5]; 8.5 mg/kg/day
  ChE activity inhibited: 30%
[6]
  Potency in inhibiting BuChE relative to AChE: at least ten times more potent in inhibiting BuChE than in inhibiting AChE
[7]
  Inhibition of AChE in blood: 60-65%
  Inhibition of AChE in brain: 47-52%
